# Source: paper PMC5429603, “Discovery and characterization of verinurad, a potent and specific inhibitor of URAT1 for the treatment of hyperuricemia and gout” (Scientific Reports, 2017)
# Positions count from the first letter of the chain named.
# Tests used:
# Format in all cases: cell-based
# human URAT1 h-L31V = molecular target: T1, human URAT1 h-L31V (Homo sapiens, UniProt Q96S37, L31V); experiment: URAT1 activity assay, h-L31V; conditions: TM1 point mutant, read-out: Verinurad affinity (IC50)
# T1 construct: expressed in transfected cells; host or cells: HEK-293T
# Text: (§1) Human URAT1 (GenBank BC053348.1, Homo sapiens SLC22A12), rat URAT1 (NCBI NM_001034943.1, Rattus norvegicus Slc22a12) and human OAT4 (NCBI NM_018484.2, Homo sapiens SLC22A11) genes were purchased from Origene Technologies, Inc. and subcloned into pCMV6/neo using NotI. Where indicated, controls transfections used pCMV6/neo. Mutants were produced by site-directed mutagenesis using the QuikChange Lightning Multi Site-Directed Mutagenesis Kit (Agilent Technologies). […] Mutagenic primer sequences are provided in ref. [15] and mutagenic primer sequences for previously unreported mutants shown in Supplementary Table 1. All constructs used in this study were untagged. Human OAT1 was purchased from Fisher Scientific (catalog # MHS1010–7508183 in pSPORT6, NCBI NM_153276.2, Homo sapiens SLC22A6).
# (§2) HEK-293T cells were maintained in DMEM/high glucose/L-glutamine/HEPES supplemented with 1 mM sodium pyruvate (Life Technologies) and 10% FBS (PAA Laboratories) at 37 °C in 5% CO2. […]
# (§3) URAT1 and OAT4 activity assays were performed in assay buffer consisting of 25 mM MES pH 5.5 (from a 1 M MES solution [Sigma] adjusted to pH 5.5 with sodium hydroxide), 125 mM sodium gluconate, 4.8 mM potassium gluconate, 1.2 mM monobasic potassium phosphate, 1.2 mM magnesium sulfate, 1.3 mM calcium gluconate and 5.6 mM glucose. […] Each treatment was measured in triplicate.
# [1] = molecular target: T2, rat URAT1 r-N35S/Y365F/M481I (Rattus norvegicus, UniProt Q3ZAV1, M481I/N35S/Y365F); experiment: URAT1 activity assay, r-N35S/Y365F/M481I
# T2 construct: expressed in transfected cells; host or cells: HEK-293T
# T2 sequence (Q3ZAV1 1-553 N35S/Y365F/M481I): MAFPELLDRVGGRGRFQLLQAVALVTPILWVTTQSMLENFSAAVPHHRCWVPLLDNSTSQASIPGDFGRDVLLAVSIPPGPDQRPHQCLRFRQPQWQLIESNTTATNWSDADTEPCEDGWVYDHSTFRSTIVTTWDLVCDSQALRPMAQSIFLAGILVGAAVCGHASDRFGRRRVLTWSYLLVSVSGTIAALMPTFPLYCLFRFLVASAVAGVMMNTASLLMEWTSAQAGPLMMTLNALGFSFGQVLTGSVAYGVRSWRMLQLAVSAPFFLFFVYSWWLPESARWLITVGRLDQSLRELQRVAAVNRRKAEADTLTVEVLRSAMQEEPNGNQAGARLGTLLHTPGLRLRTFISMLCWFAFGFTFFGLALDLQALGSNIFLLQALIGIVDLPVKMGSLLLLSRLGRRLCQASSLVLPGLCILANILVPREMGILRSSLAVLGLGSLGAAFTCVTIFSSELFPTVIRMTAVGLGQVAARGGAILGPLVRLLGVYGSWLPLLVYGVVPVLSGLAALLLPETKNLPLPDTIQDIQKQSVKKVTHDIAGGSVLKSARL
# Text: as §1
# (§4) HEK-293T cells were maintained in DMEM/high glucose/L-glutamine/HEPES supplemented with 1 mM sodium pyruvate (Life Technologies) and 10% FBS (PAA Laboratories) at 37 °C in 5% CO2. To express URAT1, OAT4 or OAT1, plasmids were reverse transfected into HEK-293T cells. DNA (10 µg) was mixed with 30 µl of DreamFect Gold (Boca Scientific) in 2 ml OptiMem (Life Technologies). After 20 minutes, 18 ml of media containing 2 × 10^7 cells in suspension was added and mixed, and 200 µl per well were plated onto white clear-bottomed poly-D-lysine coated 96-well plates (BD Biosciences). The cells were assayed the following day.
# as §3, with “glucose. URAT1 inhibitors were serially diluted into assay buffer and added to the cells for 5 minutes prior to addition of substrate. URAT1-expressing cells were incubated with 100 µM ^14C-uric acid for 10 minutes and OAT4-expressing cells were incubated with 20 µM carboxyfluorescein (Life Technologies, Inc.) for 5 minutes.” for “glucose.”
# human URAT1 h-M25V = molecular target: T3, human URAT1 h-M25V (Homo sapiens, UniProt Q96S37, M25V); experiment: URAT1 activity assay, h-M25V; conditions: TM1 point mutant, read-out: Verinurad affinity (IC50)
# T3 construct: expressed in transfected cells; host or cells: HEK-293T
# Text: as §1, §2, §3
# rat URAT1 = molecular target: T4, rat URAT1 (Rattus norvegicus, UniProt Q3ZAV1); experiment: URAT1 activity assay, rat URAT1; conditions: rat URAT1 wild type; 14C-uric acid; read-out: IC50, inhibition of transport activity
# T4 construct: host or cells: HEK-293T
# T4 sequence (Q3ZAV1 1-553): T2 sequence (Q3ZAV1 1-553 N35S/Y365F/M481I) with S35N, F365Y, I481M
# Protocol: as §4
# as §3, with “glucose. URAT1 inhibitors were serially diluted into assay buffer and added to the cells for 5 minutes prior to addition of substrate. URAT1-expressing cells were incubated with 100 µM ^14C-uric acid for 10 minutes and OAT4-expressing cells were incubated with 20 µM carboxyfluorescein (Life Technologies, Inc.) for 5 minutes.” for “glucose.”
# T3 sequence (Q96S37 whole entry M25V): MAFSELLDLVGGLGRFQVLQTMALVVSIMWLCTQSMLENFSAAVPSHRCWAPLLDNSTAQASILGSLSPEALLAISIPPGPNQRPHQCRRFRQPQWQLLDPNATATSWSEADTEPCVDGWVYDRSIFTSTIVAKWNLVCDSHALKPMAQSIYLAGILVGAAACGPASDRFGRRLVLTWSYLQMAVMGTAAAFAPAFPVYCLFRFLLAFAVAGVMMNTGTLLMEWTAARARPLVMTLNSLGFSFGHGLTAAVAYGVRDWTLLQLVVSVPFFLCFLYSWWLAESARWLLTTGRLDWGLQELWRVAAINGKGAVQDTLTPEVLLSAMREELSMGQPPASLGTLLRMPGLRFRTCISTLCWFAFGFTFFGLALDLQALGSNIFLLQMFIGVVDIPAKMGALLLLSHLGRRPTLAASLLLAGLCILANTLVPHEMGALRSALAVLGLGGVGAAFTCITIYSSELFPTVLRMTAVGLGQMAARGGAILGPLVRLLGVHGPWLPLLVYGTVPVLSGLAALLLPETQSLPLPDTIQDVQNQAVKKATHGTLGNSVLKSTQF
# T1 sequence (Q96S37 whole entry L31V): as the sequence (Q96S37 whole entry M25V) above, with V25M, L31V counted along it
compound,measurement,setting,value
"CC(C)(Sc1ccncc1-c1ccc(C#N)c2ccccc12)C(=O)O [Verinurad, 2-((3-(4-cyanonaphthalen-1-yl)pyrindin-4-yl)thio)-2-methylpropanoic acid]",IC50,human URAT1 h-L31V,31 ± 10 nM
same,fold higher affinity compared to rat URAT1,[1]; r-N35S/Y365F/M481I,~300 fold
same,fold lower affinity compared to human URAT1,[1]; r-N35S/Y365F/M481I,6 fold
same,IC50,[1]; r-N35S/Y365F/M481I triple point mutant,140 nM
same,IC50,human URAT1 h-M25V,29 ± 10 nM
same,IC50,rat URAT1,41 ± 2.7 µM
